Columns and labels:
Type in all cases: cell-based
[1] = target: T1, M3 muscarinic receptor (Homo sapiens, UniProt P20309); assay: Functional mobilization of intracellular calcium (FLIPR), M3-CHO cells; settings: for Emax: 100% efficacy = maximum response obtained with the Carbachol control; for M3 Activity: M3-CHO cells, calcium mobilization (FLIPR)
T1 construct: expressed in transfected cells; host or cells: CHO (M3-CHO)
Outline: (§1)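 CHO cells expressing human M1–M4 receptors loaded with Fluo-3 AM or Calcium 3 dye (1 mM probenecid, pH 7.4); 0.5% DMSO final. Agonist mode: compound added directly; antagonist mode: 15 min pre-incubation or co-application, then carbachol at EC80. Fluorescence read 60 s on FLIPR; efficacy relative to carbachol maximum.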

[2] = target: T2, M1 muscarinic receptor (Homo sapiens, UniProt P11229); assay: Functional mobilization of intracellular calcium (FLIPR), M1-CHO cells; settings: for Emax: 100% efficacy = maximum response obtained with the Carbachol control; for M1 Activity: M1-CHO cells, calcium mobilization (FLIPR)
T2 construct: expressed in transfected cells; host or cells: CHO (M1-CHO)
T2 sequence (P11229 1-460): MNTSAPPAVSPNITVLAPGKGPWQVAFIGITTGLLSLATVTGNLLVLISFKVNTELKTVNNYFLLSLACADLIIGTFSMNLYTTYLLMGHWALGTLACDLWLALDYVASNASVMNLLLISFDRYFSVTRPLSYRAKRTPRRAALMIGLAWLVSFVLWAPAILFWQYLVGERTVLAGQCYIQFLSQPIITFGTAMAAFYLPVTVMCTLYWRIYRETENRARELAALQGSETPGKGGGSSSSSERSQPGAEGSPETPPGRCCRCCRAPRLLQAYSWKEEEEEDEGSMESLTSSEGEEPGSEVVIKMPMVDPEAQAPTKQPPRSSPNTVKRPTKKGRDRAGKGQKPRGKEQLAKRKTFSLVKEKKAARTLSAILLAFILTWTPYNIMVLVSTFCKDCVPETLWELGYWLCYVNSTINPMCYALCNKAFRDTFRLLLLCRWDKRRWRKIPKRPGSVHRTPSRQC
Outline: as §1

[3] = target: T3, M2 muscarinic receptor (Homo sapiens, UniProt P08172); assay: Functional mobilization of intracellular calcium (FLIPR), M2-CHO cells; settings: for Emax: 100% efficacy = maximum response obtained with the Carbachol control; for M2 Activity: M2-CHO cells, calcium mobilization (FLIPR)
T3 construct: expressed in transfected cells; host or cells: CHO (M2-CHO)
T3 sequence (P08172 1-466): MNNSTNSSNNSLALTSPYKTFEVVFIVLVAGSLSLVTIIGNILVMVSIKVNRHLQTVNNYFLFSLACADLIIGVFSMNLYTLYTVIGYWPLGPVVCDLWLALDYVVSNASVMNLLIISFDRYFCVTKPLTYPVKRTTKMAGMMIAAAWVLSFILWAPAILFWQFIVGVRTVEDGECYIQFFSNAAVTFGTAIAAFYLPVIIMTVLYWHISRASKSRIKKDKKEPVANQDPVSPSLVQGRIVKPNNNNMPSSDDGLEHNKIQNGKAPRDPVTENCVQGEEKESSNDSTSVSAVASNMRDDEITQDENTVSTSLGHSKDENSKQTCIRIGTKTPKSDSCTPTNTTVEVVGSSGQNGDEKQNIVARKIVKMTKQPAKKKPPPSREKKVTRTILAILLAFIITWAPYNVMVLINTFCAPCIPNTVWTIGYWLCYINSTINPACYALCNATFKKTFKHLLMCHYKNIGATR
Outline: as §1

[4] = target: T4, M4 muscarinic receptor (Homo sapiens, UniProt P08173); assay: Functional mobilization of intracellular calcium (FLIPR), M4-CHO cells; settings: for Emax: 100% efficacy = maximum response obtained with the Carbachol control; for M4 Activity: M4-CHO cells, calcium mobilization (FLIPR)
T4 construct: expressed in transfected cells; host or cells: CHO (M4-CHO)
T4 sequence (P08173 1-479): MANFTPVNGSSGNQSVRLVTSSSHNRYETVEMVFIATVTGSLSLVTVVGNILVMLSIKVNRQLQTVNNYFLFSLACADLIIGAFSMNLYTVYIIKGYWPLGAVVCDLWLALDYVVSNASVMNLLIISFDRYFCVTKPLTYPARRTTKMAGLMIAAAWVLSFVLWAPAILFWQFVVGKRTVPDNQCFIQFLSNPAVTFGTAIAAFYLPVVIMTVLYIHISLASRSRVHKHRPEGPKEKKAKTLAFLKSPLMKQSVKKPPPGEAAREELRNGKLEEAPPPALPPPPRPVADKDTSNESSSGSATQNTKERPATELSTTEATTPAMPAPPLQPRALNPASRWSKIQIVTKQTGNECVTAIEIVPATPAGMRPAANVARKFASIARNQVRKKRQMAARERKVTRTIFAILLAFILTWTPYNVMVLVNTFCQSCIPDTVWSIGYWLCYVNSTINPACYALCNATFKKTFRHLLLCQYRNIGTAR
Outline: as §1

T1 sequence (P20309 whole entry): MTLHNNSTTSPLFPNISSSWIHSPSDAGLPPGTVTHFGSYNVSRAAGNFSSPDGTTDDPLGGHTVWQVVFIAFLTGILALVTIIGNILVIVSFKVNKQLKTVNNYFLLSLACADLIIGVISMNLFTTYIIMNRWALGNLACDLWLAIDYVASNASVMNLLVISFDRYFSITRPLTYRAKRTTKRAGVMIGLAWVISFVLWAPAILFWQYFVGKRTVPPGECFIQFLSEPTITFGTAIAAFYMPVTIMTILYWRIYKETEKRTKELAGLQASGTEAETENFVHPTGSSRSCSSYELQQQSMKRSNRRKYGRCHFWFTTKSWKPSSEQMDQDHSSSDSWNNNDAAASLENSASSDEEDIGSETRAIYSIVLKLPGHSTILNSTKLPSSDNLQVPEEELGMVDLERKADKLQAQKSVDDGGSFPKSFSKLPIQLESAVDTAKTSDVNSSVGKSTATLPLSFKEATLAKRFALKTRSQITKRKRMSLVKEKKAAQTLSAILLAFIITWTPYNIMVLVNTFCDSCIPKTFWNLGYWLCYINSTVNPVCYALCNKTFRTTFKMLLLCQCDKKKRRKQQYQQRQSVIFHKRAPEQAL

SMILES | Emax [1] | M3 Activity [1] | Emax [2] | M1 Activity [2] | Emax [3] | M2 Activity [3] | Emax [4] | M4 Activity [4]
COc1ccc(Cl)cc1C1(F)CCN([C@@H]2C[C@H]3CC[C@H]2C3)CC1 [Compound 309] | < 25% | + (activity was measured to be greater than 5.0 μM) | 25 to 100% | + (activity was measured to be greater than 5.0 μM) | 25 to 100% | ++ (activity was measured to be from 1.0 μM to 5.0 μM) | 25 to 100% | ++ (activity was measured to be from 1.0 μM to 5.0 μM)
COc1cc(F)c(F)c(C2CCN(C3CC4CCC(C4)C3)CC2)c1 (stereo not shown) [Compound 310] | < 25% | + (activity was measured to be greater than 5.0 μM) | < 25% | + (activity was measured to be greater than 5.0 μM) | < 25% | + (activity was measured to be greater than 5.0 μM) | 25 to 100% | +++ (activity was measured to be less than 1.0 μM)
COc1c(F)cc(F)cc1C1CCN(C2CC3CCC(C3)C2)CC1 (stereo not shown) [Compound 311] | < 25% | + (activity was measured to be greater than 5.0 μM) | < 25% | + (activity was measured to be greater than 5.0 μM) | < 25% | + (activity was measured to be greater than 5.0 μM) | 25 to 100% | +++ (activity was measured to be less than 1.0 μM)
COc1ccc(-c2ccc(C(=O)Nc3nccs3)cc2)cc1C1CCN(C2CC3CCC(C3)C2)CC1 (stereo not shown) [Compound 313] | < 25% | + (activity was measured to be greater than 5.0 μM) | < 25% | + (activity was measured to be greater than 5.0 μM) | < 25% | + (activity was measured to be greater than 5.0 μM) | < 25% | + (activity was measured to be greater than 5.0 μM)
COc1ccc(F)cc1C1(F)CCN(C2CCOCC2)CC1 [Compound 314] | < 25% | + (activity was measured to be greater than 5.0 μM) | < 25% | + (activity was measured to be greater than 5.0 μM) | < 25% | + (activity was measured to be greater than 5.0 μM) | 25 to 100% | + (activity was measured to be greater than 5.0 μM)
CCOC(=O)N1C2CCC1CC(N1CCC(c3cc(-c4ccc(C#N)cc4)ccc3OC)CC1)C2 (stereo not shown) [Compound 317] | < 25% | + (activity was measured to be greater than 5.0 μM) | 25 to 100% | ++ (activity was measured to be from 1.0 μM to 5.0 μM) | < 25% | + (activity was measured to be greater than 5.0 μM) | 25 to 100% | ++ (activity was measured to be from 1.0 μM to 5.0 μM)
COc1ccc(-c2cccc(F)c2F)cc1C1CCN([C@@H]2C[C@H]3CC[C@H]2C3)CC1 [Compound 318] | < 25% | + (activity was measured to be greater than 5.0 μM) | < 25% | + (activity was measured to be greater than 5.0 μM) | < 25% | + (activity was measured to be greater than 5.0 μM) | 25 to 100% | + (activity was measured to be greater than 5.0 μM)
COc1ccccc1C1CCN(CC2CCCCC2)CC1 [Compound 320] | < 25% | + (activity was measured to be greater than 5.0 μM) | < 25% | + (activity was measured to be greater than 5.0 μM) | < 25% | + (activity was measured to be greater than 5.0 μM) | 25 to 100% | ++ (activity was measured to be from 1.0 μM to 5.0 μM)

Source: patent US7880007B2, “Bicyclic substituted phenyl piperidine modulators of muscarinic receptors” (Vertex Pharmaceuticals Incorporated, priority 2004, dated 2011)
